≈ marks a conversion by molar mass, not a printed value. Like-named read-outs stand apart in the source and are kept apart here.
Tests used:
Format in all cases: cell-based
[1] = Cytotoxicity to HeLa cells in tissue culture testing; settings: human
Description: (§1) Monolayered HeLa cells in 16 millimeter (mm) tissue culture dishes were treated with 1 ml of culture medium (Eagles medium supplemented with fetal calf serum) containing subject compound at an appropriate concentration or containing no compound at all. Culture media such as those described herein are more fully described in standard texts, as for example, Kuchler's Biochemical Methods in Cell Culture and Virology, Dowden, Hutchinson and Ross, Inc., Stroudsberg, PA (1977). Following treatment, cells were challenged with 0.05 ml of rhinovirus type 1A (RV-1A), rhinovirus type 2 (RV-2) or Coxsackie A21 virus (Cox A21) in culture medium. Some of the compounds were also tested against rhinovirus type 5 (RV-5), rhinovirus type 8 (RV-8) or rhinovirus type 64 (RV-64). Cell controls received no viruses.
^x Cytotoxicity figures represent the concentration of the compound,
micrograms/milliliter (μg/ml) found to be toxic to the cell.
means "approximately "; "<<" "considerably less than " and "G.I." means

[2] = test system: Coxsackie A21 virus (Cox A21); test: Tissue culture antiviral test (HeLa cells), Cox A21; settings: 48 and 72 hours post-treatment, read-out: Lowest concentration necessary to cause a 50 percent reduction in cytopathic effect, Cox A21
Description: as §1
(§2) ^xx Lowest concentration of the compound (μg/ml) necessary to caus
(§3) a 50 percent reduction in cytopathic effect.

rhinovirus type 2 (RV-2) = test: Tissue culture antiviral test (HeLa cells), RV-2; settings: Enterovirus, 48 and 72 hours post-treatment, read-out: Lowest concentration necessary to cause a 50 percent reduction in cytopathic effect, RV-2
Description: as §1, §2, §3

[3] = test system: rhinovirus type 1A (RV-1A); test: Tissue culture antiviral test (HeLa cells), RV-1A; settings: Enterovirus, 48 and 72 hours post-treatment, read-out: Lowest concentration necessary to cause a 50 percent reduction in cytopathic effect, RV-1A
Description: as §1, §2, §3

[4] = concentration found to be toxic to the cell, observed at 48 and 72 hours, read-out: Cytotoxicity
[5] = G.I. = growth inhibition: at the concentration shown the compound inhibited growth of the tissue culture, read-out: Cytotoxicity (G.I.)

| SMILES | EC50 [2] | EC50 (rhinovirus type 2 (RV-2)) | EC50 [3] | MCC [1, 4] | MCC [1, 5] |
| --- | --- | --- | --- | --- | --- |
| CS(=O)(=O)c1ccc(Oc2ccc(Cl)c(Cl)c2)c(N)c1 [Example 16, 2-(3,4-Dichlorophenoxy)-5-(methylsulfonyl)benzenamine] | 6.25 µg/mL (≈ 18.8 µM) | 6.25 µg/mL (≈ 18.8 µM) | < 6.25 µg/mL | ≤ 6.25 µg/mL | – |
| CS(=O)(=O)c1ccc(Oc2ccc(Cl)c(Cl)c2)c(Cl)c1 [Example 14, 4-(2-Chloro-4-(methylsulfonyl)phenoxy)-1,2-dichlorobenzene] | 12.5 µg/mL (≈ 35.5 µM) | ≤ 6.25 µg/mL | 12.5 µg/mL (≈ 35.5 µM) | 50 µg/mL | – |
| C[S+]([O-])c1ccc(Oc2ccc([N+](=O)[O-])cc2[N+](=O)[O-])cc1 (centres unmarked) [Example 30, 1-(4-(Methylsulfinyl)phenoxy)-2,4-dinitrobenzene] | 6.25 µg/mL (≈ 19.4 µM) | ~6.25 µg/mL (≈ 19.4 µM) | – | 12.5 µg/mL | – |
| CSc1ccc(Oc2ccc([N+](=O)[O-])cc2[N+](=O)[O-])cc1 [Example 28, 1-(4-(Methylthio)phenoxy)-2,4-dinitrobenzene] | ≤ 6.25 µg/mL | < 6.25 µg/mL | ≤ 6.25 µg/mL | – | 50 to 100 µg/mL |
| CS(=O)(=O)c1ccc(Oc2ccc([N+](=O)[O-])cc2[N+](=O)[O-])cc1 [Example 31, 1-(4-(Methylsulfonyl)phenoxy)-2,4-dinitrobenzene] | ≤ 6.25 µg/mL | ~12.5 µg/mL (≈ 36.9 µM) | ~12.5 µg/mL (≈ 36.9 µM) | 25 µg/mL | – |
| O=S(=O)(c1ccc(Oc2ccc(Cl)c(Cl)c2)cc1)C(F)(F)F [Example 25, 4-(4-((Trifluoromethyl)sulfonyl)phenoxy)-1,2-dichlorobenzene] | < 3.12 µg/mL | 6.25 µg/mL (≈ 16.8 µM) | 12.5 µg/mL (≈ 33.7 µM) | > 50 µg/mL | – |
| CS(=O)(=O)c1ccc(Oc2ccc(Cl)c(Cl)c2)c([N+](=O)[O-])c1 [Example 15, 4-(4-(Methylsulfonyl)-2-nitrophenoxy)-1,2-dichlorobenzene] | – | 6.25 µg/mL (≈ 17.3 µM) | – | > 100 µg/mL | – |
| CS(=O)(=O)c1ccc(Oc2ccc(Cl)c(Cl)c2)c(C#N)c1 [Example 17, 2-(3,4-Dichlorophenoxy)-5-(methylsulfonyl)benzonitrile] | 12.5 µg/mL (≈ 36.5 µM) | 25 µg/mL (≈ 73.1 µM) | 12.5 µg/mL (≈ 36.5 µM) | > 100 µg/mL | – |
| O=S(=O)(c1ccccc1)c1ccc(Oc2ccc(Cl)c(Cl)c2)cc1 [Example 10, 4-(4-(Phenylsulfonyl)phenoxy)-1,2-dichlorobenzene] | 6.25 µg/mL (≈ 16.5 µM) | 6.25 µg/mL (≈ 16.5 µM) | – | 50 µg/mL | – |

More lines, main results first:

| EC50 [2] | EC50 (rhinovirus type 2 (RV-2)) | EC50 [3] | SMILES | MCC [1, 4] | MCC [1, 5] |
| --- | --- | --- | --- | --- | --- |
| < 6.25 µg/mL | ≤ 6.25 µg/mL | ≤ 6.25 µg/mL | C[S+]([O-])c1ccc(Oc2ccc([N+](=O)[O-])cc2)cc1 (centres unmarked) [Example 29, 1-(Methylsulfinyl)-4-(4-nitrophenoxy)benzene] | 25 µg/mL | – |
| < 6.25 µg/mL | ≤ 6.25 µg/mL | 12.5 µg/mL (≈ 42.6 µM) | CS(=O)(=O)c1ccc(Oc2ccc([N+](=O)[O-])cc2)cc1 [Example 32, 1-(Methylsulfonyl)-4-(4-nitrophenoxy)benzene] | 50 µg/mL | – |
| < 3.12 µg/mL | < 3.12 µg/mL | < 3.12 µg/mL | CSc1ccc(Oc2ccc(C#N)cc2)cc1 [Example 5, 4-(4-(Methylthio)phenoxy)benzonitrile] | 6.25 µg/mL | – |
| 0.625 µg/mL (≈ 2.21 µM) | 1.25 µg/mL (≈ 4.42 µM) | 1.25 µg/mL (≈ 4.42 µM) | CS(=O)(=O)c1ccc(Oc2ccc(Cl)cc2)cc1 [Example 2, 4-(4-(Methylsulfonyl)phenoxy)-1-chlorobenzene] | – | 10 µg/mL |
| 25 µg/mL (≈ 65.2 µM) | – | 50 µg/mL (≈ 130 µM) | CCN(CC)S(=O)(=O)c1ccc(Oc2ccc(S(C)(=O)=O)cc2)cc1 [Example 13, N,N-Diethyl-4-(4-(methylsulfonyl)phenoxy)benzenesulfonamide] | – | 100 µg/mL |
| 50 µg/mL (≈ 141 µM) | – | – | CN(C)S(=O)(=O)c1ccc(Oc2ccc(S(C)(=O)=O)cc2)cc1 [Example 12, N,N-Dimethyl-4-(4-(methylsulfonyl)phenoxy)benzenesulfonamide] | – | 100 µg/mL |
| – | ~25 µg/mL (≈ 94.6 µM) | ~25 µg/mL (≈ 94.6 µM) | CS(=O)(=O)c1ccc(Oc2ccc(O)cc2)cc1 [Example 21, 4-(4-(Methylsulfonyl)phenoxy)phenol] | 25 µg/mL | – |

From patent US4505929A, “Sulfur-substituted diphenyl ethers having antiviral activity” (The Dow Chemical Company, priority 1982, dated 1985)
